{
  "source": "patent US7488820B2",
  "about": "“Naphthofluorescein-based metal sensors, and methods of making and using the same” (Massachusetts Institute of Technology, priority 2004, dated 2009)",
  "key": {"[1]": {"assay": "Ratiometric fluorescence responses (F624/F528) of MS4 and MS5 to various metal ions", "conditions": "5 μM probe, 50 equiv metal ion, 50 mM HEPES, 100 mM KCl, pH 8, excitation 499 nm", "description": "(§1) FIG. 9 depicts the ratiometric fluorescence spectroscopic responses of MS4 to various metal ions. Bars represent the ratio of fluorescence intensities collected at 624 and 528 nm (F624/F528). All spectra were acquired in 50 mM HEPES, 100 mM KCl, pH 8. Grey bars represent the addition of an excess of the appropriate metal ion (50 equiv metal ion of interest) to a 5 μM solution of MS4. Dark grey bars represent the subsequent addition of 50 equiv Hg^2+ to the solution. Excitation was provided at 499 nm.\nas §1, with “FIG. 10” for “FIG. 9”, “of MS5” for “of MS4”, “of MS5.” for “of MS4.”\nMillipore water was used to prepare all aqueous solutions. […] Fluorescence spectra were collected by using a Photon Technology International (Lawrenceville, N.J.) Quanta Master 4L-format scanning spectrofluorimeter equipped with an LPS-220B 75-W xenon lamp and power supply, A-1010B lamp housing with integrated igniter, switchable 814 photon-counting/analog PMT detector, and a MD-5020 motor driver. […]"}, "[2]": {"assay": "Fluorescence spectroscopy: quantum yield and ratiometric emission response to Zn2+", "assay_type": "physicochemical", "conditions": "pH 7.5", "description": "FIG. 3. Ratiometric fluorescence spectroscopic response of 20 μM ZNP1 to buffered Zn^2+ solutions. Spectra were acquired in 50 mM HEPES, 100 mM KCl, pH 7.5. Excitation was provided at 499 nm. A standard EDTA/Ca^2+/Zn^2+ dual-metal buffer system was employed to deliver controlled concentrations of buffered free Zn^2+. The spectra shown are for free Zn^2+ buffered at 0, 0.17, 0.42, 0.79, 1.3, 2.1, 3.4, 5.6, and 10.2 nM, respectively.\nQuantum yield, Φ, may be obtained by comparison of the integrated area of the corrected emission spectrum of the sample with that of a reference solution. A preferred reference solution is a solution of fluorescein in 0.1 N NaOH, quantum efficiency 0.95. The concentration of the reference is adjusted to match the absorbance, Abs, of the test sample. The quantum yields may be calculated using the following equation:\nZNP1 was evaluated at physiological ionic strength and pH [50 mM HEPES (4-(2-hydroxyethyl)-1-piperazineethanesulfonic acid), 100 mM KCl, pH 7.5] in the presence of EDTA (ethylenediaminetetraacetic acid) to scavenge adventitious metal ions. […] The quantum yield for apo ZNP1 is 0.02.\nThe observed changes in absorption and emission spectra occur up to a 1:1 [Zn^2+][ZNP1] ratio, indicating the likely formation of a 1:1 complex. Upon addition of Zn^2+, the visible absorption profile of the ZNP1 chemosensor red shifts to a single broad peak centered at 547 nm (ε=2.2×10^4 M^−1cm^−1). Excitation at 499 nm produces a fluorescence spectrum featuring one dominant emission band centered at 624 nm with a minor component centered at 545 nm (FIG. 3). The quantum yield for Zn^2+-ZNP1 complex is 0.05. […] The ratio of naphthofluorescein- to fluorescein-like emission intensities (λ624/λ528) upon 499-nm excitation varies from 0.4 in the absence of Zn^2+ to 7.1 in the presence of Zn^2+, an 18-fold increase.\n(§2) Millipore water was used to prepare all aqueous solutions, which were passed through 0.2 um cellulose filters prior to use. All spectroscopic measurements were performed under simulated physiological conditions using buffer solutions containing 50 mM HEPES, 4-(2-hydroxyethyl)-1-piperazineethanesulfonic acid, and 100 mM KCl adjusted to pH 7.5. A glass electrode (Orion), calibrated prior to each use, was used to determine solution pH. Solutions of Zn^2+ were prepared from 100 mM stock solutions of ZnCl2 in water. Absorption spectra were recorded on a Hewlett-Packard 8453A diode array spectrophotometer, and fluorescence spectra on a Photon Technology International (PTI) Quanta Master 4 L-format scanning spectrofluorimeter equipped with an LPS-220B 75-watt xenon lamp and power supply, A-1010B lamp housing with integrated igniter, switchable 814 photon-counting/analog photomultiplier detection unit, and MD-5020 motor driver. Samples for absorption and emission measurements were contained in 1 cm×1 cm quartz cuvettes (3.5 mL volume, Stama). The experiments for measuring quantum yields, apparent dissociation constants (Kd), and metal ion selectivities were performed by using standard protocols. Quantum yields were determined by reference to fluorescein in 0.1 N NaOH (Φ=0.95). Confocal fluorescence imaging experiments were performed with a Zeiss LSM510 laser scanning microscopy system containing an Axiovert 200M inverted fluorescence microscope. The microscope was equipped with an argon ion laser (488-nm excitation) and objective lenses (100×), and scanning was performed using the META detection system operating in lambda mode (Zeiss) with 10.7 nm collection windows. During imaging measurements, cell samples were kept on the microscope stage in a CTI-3700 incubator at 37° C. under 5% CO2. Additions of Zn^2+ as the pyrithione complex (2-mercaptopyridine N-oxide), TPEN [N,N,N′,N′-tetra(2-picolyl)ethylenediamine], or SNOC (S-nitrosocysteine) to cell samples were performed directly on the microscope stage by bath application to the media. SNOC was prepared immediately before use."}, "[3]": {"assay": "Metal ion selectivity of the ratiometric fluorescence response (F624/F528) of ZNP1", "description": "FIG. 4. Ratiometric fluorescence spectroscopic responses of ZNP1 to various metal ions. Bars represent the ratio of fluorescence intensities collected at 624 and 528 nm (F624/F528). All spectra were acquired in 50 mM HEPES, 100 mM KCl, pH 7.5. White bars represent the addition of an excess of the appropriate metal ion (2 mM for Ca^2+ and Mg^2+, 100 μM for all other metal ions) to a 10 μM solution of ZNP1. Grey bars represent the subsequent addition of 100 μM Zn^2+ to the solution. Excitation was provided at 499 nm.\nThe emission profiles of apo or Zn^2+-bound ZNP1 are unperturbed in the presence of 2 mM Ca^2+ or Mg^2+, indicating a degree of selectivity for Zn^2+ over these biologically competing alkaline earth cations.\nas §2, with “SNOC was prepared immediately before use.” left out"}, "[4]": {"tested_on": "COS-7 cells", "assay": "Cell membrane permeability and ratio confocal fluorescence imaging of intracellular Zn2+ in live COS-7 cells", "assay_type": "cell-based", "description": "FIG. 5. Ratio confocal fluorescence imaging in COS-7 cells using the Zeiss LSM510 META system operating in the lambda mode. Fluorescence was collected in 10.7 nm optical windows centered at 612 and 526 nm. Pseudocolor figures depict the ratio of fluorescence intensities at these two emission wavelengths. (a) Ratio confocal fluorescence images of live COS-7 cells labeled with ZNP1. Incubation of cells with 20 μM ZNP1-Ac for 20 min at 37° C. (left), ZNP1-stained cells loaded with 50 μM Zn(pyrithione)2 for 5 min (middle), and reversal of the cytosolic ratio enhancements with 100 μM TPEN (right). Confocal images were taken from a middle optical section (vertical dimension) of the cell samples. (b) Confocal fluorescence images of NO-triggered release of endogenous Zn^2+ in live COS-7 cells. Incubation of cells with 20 μM ZNP1-Ac for 20 min at 37° C. (left), ZNP1-stained cells treated with 10 mM SNOC (S-nitrosocysteine, middle) for 1 hr, and reversal of the observed ratio increases with 2 mM TPEN (right). Confocal images were taken from a middle optical section (vertical dimension) of the cell samples.\nWe therefore prepared the non-fluorescent diacetate derivative of ZNP1, ZNP1-Ac, anticipating that this more lipophilic derivative would permeate the cell and be transformed to fluorescent ZNP1 by the action of intracellular esterases. […] Ratiometric fluorescence imaging of ZNP1-stained cells is readily performed by using the META detection system operating in lambda mode with optical windows centered at 612 and 526 nm. […] Prompt increases in the ratio of cytosolic fluorescence intensities collected at 612 and 526 nm are observed upon the addition of exogenous Zn^2+ (50 μM) carried by the ionophore pyrithione (2-mercaptopyridine N-oxide, FIG. 5a). […]\nThe successful use of ZNP1 for monitoring changes in intracellular Zn^2+ concentrations using ratiometric fluorescence imaging led us to apply this probe for detecting endogenous pools of intracellular Zn^2+. […]"}},
  "data": [
    {"smiles": "CCSCCN(Cc1ccccn1)Cc1ccccc1NCc1c2oc3c(ccc4cc(O)ccc43)c(-c3ccccc3C(=O)O)c-2ccc1=O", "note": "[MS4]", "values": [
      {"measurement": "selectivity for Hg2+ over other metal ions (in words)", "setting": "[1]", "result": "selectivity for Hg^2+ over metal ions such as Na^+, Ca^2+, and Mg^2+"}
    ]},
    {"smiles": "CCSCCN(CCSCC)Cc1ccccc1NCc1c2oc3c(ccc4cc(O)ccc43)c(-c3ccccc3C(=O)O)c-2ccc1=O", "note": "[MS5, 2-{11-[(2-{[Bis-(2-ethylsulfanylethyl)amino]methyl}phenylamino)methyl]-3-hydroxy-10-oxo-10H-benzo[c]xanthen-7-yl}benzoic acid]", "values": [
      {"measurement": "selectivity for Hg2+ over other metal ions (in words)", "setting": "[1]", "result": "selectivity for Hg^2+ over metal ions such as Na^+, Ca^2+, and Mg^2+"}
    ]},
    {"smiles": "O=C(O)c1ccccc1-c1c2ccc(=O)c(CNc3ccccc3CN(Cc3ccccn3)Cc3ccccn3)c-2oc2c1ccc1cc(O)ccc12", "note": "[ZNP1, 4-[12-{Bis(2-pyridylmethyl)aminomethyl}-N-methylaniline]-3,10-dibenzoate-spiro[7H-benzo[c]xanthen-7,1′(3′H)-isobenzofuran]-3′-one]", "values": [
      {"measurement": "time of fluorescence response to buffered Zn2+", "setting": "[2]; 20 μM probe, free Zn2+ 0-10.2 nM", "result": "immediately upon mixing"},
      {"measurement": "increase of λ624/λ528 emission ratio on Zn2+ binding", "setting": "[2]; 499-nm excitation", "result": 18, "unit": "fold"},
      {"measurement": "ratio of emission intensities λ624/λ528 in the absence of Zn2+", "setting": "[2]; 499-nm excitation", "result": 0.4},
      {"measurement": "ratio of emission intensities λ624/λ528 in the presence of Zn2+", "setting": "[2]; 499-nm excitation", "result": 7.1},
      {"measurement": "quantum yield, Zn2+ complex", "setting": "[2]; Zn2+-bound, 50 mM HEPES, 100 mM KCl", "result": 0.05},
      {"measurement": "quantum yield, apo", "setting": "[2]; no Zn2+, EDTA present, 50 mM HEPES, 100 mM KCl, reference fluorescein in 0.1 N NaOH", "result": 0.02},
      {"measurement": "selectivity for Zn2+ over other metal ions (in words)", "setting": "[3]", "result": "selectivity for Zn^2+ over metal ions such as Na^+, K^+, Ca^2+, and Mg^2+"},
      {"measurement": "emission profiles of apo or Zn2+-bound probe in the presence of Ca2+ or Mg2+", "setting": "[3]; 10 μM probe, 2 mM Ca2+ or Mg2+, pH 7.5", "result": "unperturbed"},
      {"measurement": "ratiometric response to subsequent addition of 100 μM Zn2+ in the presence of first-row transition metal ions", "setting": "[3]; 10 μM probe, Cu2+, Ni2+, Co2+, Fe2+, Mn2+ 100 μM, then 100 μM Zn2+", "result": "only the sample containing Mn^2+ affords a ratiometric fluorescence response"},
      {"measurement": "change in emission ratio with Cu2+, Ni2+, Co2+, Fe2+, Mn2+", "setting": "[3]; 10 μM probe, metal ions at 10-fold excess over probe", "result": "no discernable change in emission ratios"},
      {"measurement": "permeability to cell membranes", "setting": "[4]; initial experiments", "result": "impermeable to cell membranes"},
      {"measurement": "monitoring of intracellular [Zn2+] changes (612/526 nm ratio)", "setting": "[4]; stained COS-7 cells, 50 μM Zn2+/pyrithione, then 100 μM TPEN", "result": "can monitor changes in intracellular [Zn^2+] reversibly"},
      {"measurement": "detection of NO-triggered release of endogenous Zn2+ (612/526 nm ratio)", "setting": "[4]; stained COS-7 cells, 10 mM S-nitrosocysteine, reversed by 2 mM TPEN", "result": "establishes a rise in intracellular [Zn^2+]"}
    ]}
  ]
}
